Source: ChEMBL document CHEMBL1148878, “Himbacine derived thrombin receptor antagonists: discovery of a new tricyclic core” (Bioorg Med Chem Lett, 2007)
Active and inactive are the calls of the source. The calls are words filed in the database; no cut-off is given here.

Tests used:
[1] = target: T1, Proteinase-activated receptor 1 (Homo sapiens, UniProt P25116); assay: Displacement of [3H]haTRAP from PAR1
T1 sequence (P25116 whole entry): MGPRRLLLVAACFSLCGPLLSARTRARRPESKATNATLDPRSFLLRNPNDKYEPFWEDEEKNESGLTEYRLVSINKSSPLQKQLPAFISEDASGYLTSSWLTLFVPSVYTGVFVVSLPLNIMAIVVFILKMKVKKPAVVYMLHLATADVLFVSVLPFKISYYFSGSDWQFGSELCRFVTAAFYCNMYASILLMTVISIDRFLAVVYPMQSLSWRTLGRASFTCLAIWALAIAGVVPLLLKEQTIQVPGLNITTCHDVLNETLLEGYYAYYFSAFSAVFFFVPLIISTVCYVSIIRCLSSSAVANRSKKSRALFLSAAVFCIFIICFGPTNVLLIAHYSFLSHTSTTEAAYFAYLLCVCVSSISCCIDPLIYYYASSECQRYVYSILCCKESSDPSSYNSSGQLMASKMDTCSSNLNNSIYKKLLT

[2] = AUC (0 to 6 hrs) in rat; format: ADME, organism-based; set-up: time < 6 hr; concentration or dose not given beside the values; settings: plasma
[3] = AUC in cynomolgus monkey at 3 mg/kg, po; format: ADME, organism-based, Macaca fascicularis; set-up: dose 3 mg/kg, route oral; settings: plasma
Cynomolgus monkey [4] = assay: Inhibition of platelet aggregation in cynomolgus monkey at 3 mg/kg, po upto 5 hrs; format: functional, organism-based; set-up: dose 3 mg/kg; settings: Macaca fascicularis
[5] = test system: Proteinase-activated receptor 1 (Homo sapiens); assay: Dissociation half-life from PAR-1 receptor
[6] = AUC (0 to 24 hrs) in cynomolgus monkey at 1 mg/kg, po; format: ADME, organism-based, Macaca fascicularis; set-up: time < 24 hr, dose 1 mg/kg, route oral; settings: plasma
Cynomolgus monkey [7] = assay: Inhibition of platelet aggregation in cynomolgus monkey at 2 mg/kg, po after 24 hrs; format: functional, organism-based; set-up: dose 2 mg/kg; settings: Macaca fascicularis
Cynomolgus monkey [8] = assay: Inhibition of platelet aggregation in cynomolgus monkey at 3 mg/kg, po; format: functional, organism-based; set-up: dose 3 mg/kg; settings: Macaca fascicularis
Cynomolgus monkey [9] = assay: Inhibition of platelet aggregation in cynomolgus monkey after 24 hrs; format: functional, Macaca fascicularis

Row | SMILES | IC50 [1] [nM] | other results
1 | COc1ccc2nc(/C=C/[C@@H]3c4ccccc4C[C@H]4C(=O)O[C@@H](C)[C@@H]34)ccc2c1 | 3140 | 
2 | O=C1OC[C@H]2[C@@H]1Cc1ccc(F)cc1[C@@H]2/C=C/c1ccc(-c2cccc(Cl)c2)cn1 | 10 | AUC(0-t) at 6 h [2]: 6720 ng·h/mL
3 | O=C1OC[C@H]2[C@@H]1Cc1ccc(Cl)cc1[C@@H]2/C=C/c1ccc(-c2cccc(Cl)c2)cn1 (racemic) | 120 | 
4 | O=C1OC[C@H]2[C@@H]1Cc1cccc(F)c1[C@@H]2/C=C/c1ccc(-c2cccc(F)c2)cn1 (racemic) | 85.5 | 
5 | O=C1OC[C@H]2[C@@H]1Cc1ccc(F)cc1[C@@H]2/C=C/c1ccc(-c2cccc(F)c2)cn1 | 10 | AUC(0-t) at 6 h [2]: 5050 ng·h/mL
6 | O=C1OC[C@H]2[C@@H]1Cc1cc(F)ccc1[C@@H]2/C=C/c1ccc(-c2cccc(F)c2)cn1 | 7.6 | dissociation half-life [5]: 2.32 h; AUC(0-t) at 24 h [6]: 6200 ng·h/mL; Activity (Cynomolgus monkey [7]): Active; AUC(0-t) at 6 h [2]: 3960 ng·h/mL
7 | O=C1OC[C@H]2[C@@H]1Cc1c(ccc(F)c1F)[C@@H]2/C=C/c1ccc(-c2cccc(Cl)c2)cn1 | 15.5 | Activity (Cynomolgus monkey [8]): inactive; AUC(0-t) at 6 h [2]: 264 ng·h/mL
8 | O=C1OC[C@H]2[C@@H]1Cc1ccc(Cl)cc1[C@@H]2/C=C/c1ccc(-c2cccc(F)c2)cn1 | 14.5 | 
9 | O=C1OC[C@H]2[C@@H]1Cc1ccccc1[C@@H]2/C=C/c1ccc(-c2cccc(C(F)(F)F)c2)cn1 | 10 | AUC [3]: < 300 ng·h/mL
10 | O=C1OC[C@H]2[C@@H]1Cc1cc(F)ccc1[C@@H]2/C=C/c1ccc(-c2cccc(Cl)c2)cn1 | 13 | Inhibition (Cynomolgus monkey [9]): 60%; AUC(0-t) at 6 h [2]: 3700 ng·h/mL
11 | O=C1OC[C@H]2[C@@H]1Cc1c(ccc(F)c1F)[C@@H]2/C=C/c1ccc(-c2cccc(F)c2)cn1 | 7 | 
12 | COc1ccc2nc(/C=C/[C@H]3c4ccccc4C[C@@H]4C(=O)O[C@H](C)[C@@H]43)ccc2c1 | 90 | 
13 | O=C1OC[C@H]2[C@@H]1Cc1c(F)cc(F)cc1[C@@H]2/C=C/c1ccc(-c2cccc(C(F)(F)F)c2)cn1 | 21.5 | 
14 | COc1ccc2nc(/C=C/[C@@H]3c4ccccc4C[C@H]4C(=O)OC[C@@H]34)ccc2c1 (racemic) | 12.5 | 
15 | O=C1OC[C@H]2[C@@H]1Cc1c(F)cccc1[C@@H]2/C=C/c1ccc(-c2cccc(C(F)(F)F)c2)cn1 (racemic) | 65 | 
16 | O=C1OC[C@H]2[C@@H]1Cc1c(Cl)cccc1[C@@H]2/C=C/c1ccc(-c2cccc(C(F)(F)F)c2)cn1 (racemic) | 225 | 

Continued by falling IC50 [1], values first:

Row | IC50 [1] [nM] | SMILES | other results
17 | 12000 | O=C1OC[C@H]2[C@H](/C=C/c3ccccn3)c3ccccc3C[C@@H]12 | 
18 | 9170 | COc1ccc2nc(/C=C/[C@H]3c4ccccc4C[C@@H]4C(=O)O[C@@H](C)[C@@H]43)ccc2c1 | 
19 | 580 | COc1ccc2nc(/C=C/[C@@H]3c4ccccc4C[C@H]4C(=O)O[C@H](C)[C@@H]34)ccc2c1 | 
20 | 330 | O=C1OC[C@H]2[C@@H]1Cc1cccc(F)c1[C@@H]2/C=C/c1ccc(-c2cccc(Cl)c2)cn1 (racemic) | 
21 | 328 | O=C1OC[C@H]2[C@@H]1Cc1c(Cl)cccc1[C@@H]2/C=C/c1ccc(-c2cccc(Cl)c2)cn1 (racemic) | 
22 | 225 | COc1ccc2nc(/C=C/[C@@H]3c4ccccc4C[C@H]4C(=O)OC(C)(C)[C@@H]34)ccc2c1 (racemic) | 
23 | 138 | O=C1OC[C@H]2[C@@H]1Cc1ccc(Cl)cc1[C@@H]2/C=C/c1ccc(-c2cccc(C(F)(F)F)c2)cn1 (racemic) | 
24 | 63.5 | O=C1OC[C@H]2[C@@H]1Cc1c(Cl)cccc1[C@@H]2/C=C/c1ccc(-c2cccc(F)c2)cn1 (racemic) | 
25 | 46.5 | O=C1OC[C@H]2[C@@H]1Cc1c(F)cc(F)cc1[C@@H]2/C=C/c1ccc(-c2cccc(Cl)c2)cn1 (racemic) | 
26 | 31.5 | O=C1OC[C@H]2[C@@H]1Cc1ccc(F)cc1[C@@H]2/C=C/c1ccc(-c2cccc(C(F)(F)F)c2)cn1 | 
27 | 29 | O=C1OC[C@H]2[C@@H]1Cc1c(F)cccc1[C@@H]2/C=C/c1ccc(-c2cccc(Cl)c2)cn1 | 
28 | 20.5 | O=C1OC[C@H]2[C@@H]1Cc1c(F)cccc1[C@@H]2/C=C/c1ccc(-c2cccc(F)c2)cn1 | AUC(0-t) at 6 h [2]: 4590 ng·h/mL
29 | 14.5 | O=C1OC[C@H]2[C@@H]1Cc1ccccc1[C@@H]2/C=C/c1ccc(-c2cccc(Cl)c2)cn1 | Activity (Cynomolgus monkey [4]): Active; AUC [3]: 6300 ng·h/mL
30 | 7.5 | O=C1OC[C@H]2[C@@H]1Cc1ccccc1[C@@H]2/C=C/c1ccc(-c2cccc(F)c2)cn1 | AUC [3]: < 300 ng·h/mL
